These are literature values, as cited in US20220409620A1, “REDUCING IMMUNOGENICITY TO PEGLOTICASE” (Horizon Pharma Rheumatology LLC, priority 2016, published 2022).

Structures are written as SMILES.

The series relates to patients. Conditions: patients treated with allopurinol; cited from earlier work.

Turning to `Oc1ncnc2[nH]ncc12` [allopurinol], the “patients developing allergic reactions” value was “Approximately 2%” and the severe hypersensitivity syndrome result is given as “about 0.4%”.
